The subject of series [1] is melanoma B16F10 cells. As to the kind of experiment: IncuCyte S3 live-cell proliferation of B16F10 cells. It counts as cell-based. As to the method:
(§1) FIG. 1: Hematological tumors are more sensitive to GSK126 than solid tumors. (A) Proliferation of B16F10, Huh7 and SMMC7721 cells in GSK126 (10-20 μM) treatment was monitored by Incucyte S3 with 6 replicates per group; (B) Viabilities of Daudi and THP-1cells after GSK126 (200 nM to 24 μM) treatment for 24 h and 48 h were measured by CCK-8 assay with 5 replicates per group; (C) Western blot (WB) analysis on B16F10 cells after 48 h without or with GSK126 treatment (6 μM, and 12 μM), with H3 used as an internal reference for histone. 5 to 6 replicates were established for each group, with *P<0.05, **P<0.01, and ***P<0.001, and ns for no statistical difference.
P=0.0108, P=0.0385, Kaplan-Meier survival analysis; (C) effect of telmisartan at different concentrations on the proliferation of U87 cells (left) and U251 cells (right) (3 replicates per group); (D) effect of fenofibrate at different concentrations on the proliferation of B16F10 cells (left) and 4T1 cells (right) (3 replicates per group); (E) FACS quantitative analysis of the percentage of cells positive for EdU (FITC+) staining 48 h after the telmisartan treatment on U87 and U251 cells. Single cells were first gated, followed by FITC+cells. The percentage of FITC+ cells was listed above the corresponding cell population. […]

The next series deals with hepatoma Huh7 cells. As to the kind of experiment: IncuCyte S3 live-cell proliferation of Huh7 cells. It counts as cell-based. The protocol:
as §1
(§2) In order to accurately assess the responsiveness of solid tumor cells to EZH2 inhibitors, the effects of GSK126 at different concentrations on the proliferation of melanoma B16F10 cells and hepatoma Huh7 and SMMC-7721 cells were initially detected by IncuCyte S3® Live-Cell Analysis System.

In the next series the test system is hepatoma SMMC-7721 cells. As to the kind of experiment: IncuCyte S3 live-cell proliferation of SMMC-7721 cells. It is filed as cell-based. As to the method: as §1
(§3) FIG. 6: Lipid-modulating drugs can enhance the inhibitory effect of GSK126 on cancer cells. […] 3 to 5 replicates were established for each group, with *P<0.05, **P<0.01, and ***P<0.001.
as §2

Series [2] deals with Burkitt's lymphoma cells (Daudi). The experiment in a line: CCK-8 cell proliferation assay, Daudi. It is filed as cell-based. As to the method:
as §1
In general terms: Tetrazolium assays rely on reduction of a dye to a coloured formazan, in cell work by metabolically active cells.

In another series the test system is THP-1 cells. The experiment in a line: CCK-8 cell proliferation assay, THP-1. It is filed as cell-based. Particulars: 10 μM GSK126 for 24 h and 48 h. The protocol: as §1
In series [3] the test system is H3K27me3 level in B16F10 cells. As to the kind of experiment: Western blot of H3K27me3 in B16F10 cells. It is filed as cell-based. The following applies: GSK126 6 μM, 48 h, H3 internal reference. The protocol:
as §1
For orientation: A western blot detects proteins with antibodies after separation by electrophoresis.

The next series deals with melanoma cells B16F10. The experiment in a line: Cell scratch assay (migration) of B16F10 cells. It is filed as cell-based. The following applies: GSK126 10 μM, 36 h of culture, vs control group. As to the method:
(§4) FIG. 2: Melanoma cells B16F10 are less sensitive to GSK126. (A) Cell scratch assay, showing the effect of GSK126 (10 μM) treatment on the migration capability of B16F10 cells, with 3 replicates per group; (B-C) the effect of GSK126 (10, 13, and 15 μM) on the apoptosis rate of B16F10 cells, as examined by flow cytometry (C) and Annexin V staining assay. 3 replicates were established for each group, with *P<0.05, **P<0.01, and ***P<0.001, and ns for no statistical difference.
(§5) Next, to further validate the effect of GSK126 at 10 μM on melanoma cells B16F10,scratch assay was conducted. […] In addition, to assess the anti-survival effect of GSK126, B16F10 cells were treated by GSK126 at different concentrations for different periods, and the apoptosis rate of the cells was analyzed by flow cytometry (FIG. 2B) and live-cell fluorescence imaging (FIG. 2C).

A further series concerns B16F10 cells. As to the kind of experiment: Apoptosis of B16F10 cells by flow cytometry and live-cell fluorescence imaging. It counts as cell-based. Particulars: GSK126 10 μM. As to the method:
as §4, §5

Series [4] concerns melanoma B16F10 cells. As to the kind of experiment: Fatty acid metabolite levels in B16F10 cells. It counts as cell-based. Particulars: GSK126 group. The source says: FIG. 3: GSK126 results in significant elevated levels of 6 fatty acids in melanoma B16F10 cells.
Among the metabolites with significant changes, the levels of many fatty acids increased in the GSK126 group. There are five polyunsaturated fatty acids, including α-linolenic acid, DHA, EPA, linoleic acid, and γ-linolenic acid) and one monounsaturated fatty acid, i.e., 10Z-heptadienoic acid (FIG. 3).

A further series concerns C57BL/6 mice. As to the kind of experiment: Lipid accumulation in B16F10 tumor-bearing C57BL/6 mice. It is filed as in vivo. Particulars: B16F10 tumor-bearing C57BL/6 mice treated with GSK126. The text has this:
(§6) FIG. 4: Lipid accumulation in mice after GSK126 treatment. (A) H & E and oil red O staining of the liver tissue sections of the tumor-bearing mice in the control group and the GSK126 treatment group, in which the statistical results of negative or positive staining area were shown on the right (3 replicates per group); (B) TG level in the serum of the tumor-bearing mice in the control group and the GSK126 treatment group (5 replicates per group); (C-D) mRNA (C) and protein (D) levels of the genes related to fatty acid anabolism in the GSK126-treated HCC cells, as detected by RT-qPCR and WB (3 replicates per group). 3 to 5 replicates were established for each group, with *P<0.05, **P<0.01.
(§7) C57BL/6 mice (6-8 weeks old) were subcutaneously implanted with B16F10 cells and then treated with GSK126. […] Therefore, the expression of fatty acid synthesis-related genes in GSK126-treated hepatocellular carcinoma (HCC) cell lines SMMC7721 and Huh7 was further detected.

Series [5] has as its system ACLY, FASN, SCD in SMMC7721 cells. As to the kind of experiment: RT-qPCR/WB of fatty acid synthesis genes in SMMC7721 cells. It is filed as cell-based. The following applies: after GSK126 treatment.
Description: as §6, §3, §7
(Quantitative PCR measures a nucleic acid by following its amplification.)

Series [6] concerns ACLY, FASN, SCD in Huh7 cells. As to the kind of experiment: RT-qPCR/WB of fatty acid synthesis genes in Huh7 cells. It is filed as cell-based. The following applies: after GSK126 treatment.
Description: as §6, §7

The subject of series [7] is mouse brain glioma cell line (GL261). The experiment in a line: IncuCyte S3 live-cell proliferation of GL261 cells. It counts as cell-based.
Description: 3 to 6 replicates were established for each group, with *P<0.05, **P<0.01, and ***P<0.001, and ns for no statistical difference.
IncuCyte S3® Live-Cell Analysis System was used to monitor and analyze the growth of mouse glioma GL261 cells. • (1) GL-261 cells in logarithmic growth phase were prepared into a single cell suspension, and the cells were counted; • (2) GL261 cells were added into a 96-well plate at a density of 8x10^4 cells/mL, with 4-6 replicate wells per each group; • (3) The 96-well plate was then placed in an incubator for another 12-24 hours, and the plate was refreshed with a culture medium containing the drug at the cell confluence of about 20-30%. GSK126 and fenofibrate (FF) were serially diluted using the medium; • (4) The 96-well plate was then placed in the incubator suitable for the instrument, and detected with IncuCyte S3® Live-Cell Analysis System. Cell growth images of 4 different areas in each well were taken at an interval of 4 h using a 10× objective lens. • (5) The plate was real-time monitored for 48 h, and the cell confluence was determined by defining the cell edge using IncuCyte S3 image analysis software and normalized to the cell confluence at 0 h. […]
The subject of series [8] is hematologic cancer cell lines. The following applies: most hematologic cancer cell lines; many studies; read-out: IC50 (half-maximal inhibitory concentration); cited from earlier work.
Another series has as its system human glioma cells U87. The experiment in a line: Incucyte real-time proliferation of U87 cells. It is filed as cell-based. The following applies: telmisartan at different concentrations. The protocol:
(§8) P=0.0108, P=0.0385, Kaplan-Meier survival analysis; (C) effect of telmisartan at different concentrations on the proliferation of U87 cells (left) and U251 cells (right) (3 replicates per group); (D) effect of fenofibrate at different concentrations on the proliferation of B16F10 cells (left) and 4T1 cells (right) (3 replicates per group); (E) FACS quantitative analysis of the percentage of cells positive for EdU (FITC+) staining 48 h after the telmisartan treatment on U87 and U251 cells. Single cells were first gated, followed by FITC+cells. The percentage of FITC+ cells was listed above the corresponding cell population. 3 replicates were established for each group, with *P<0.05, **P<0.01, ***P<0.001, and ****P<0.0001, and ns for no statistical difference.
(§9) Therefore, telmisartan and fenofibrate were selected to explore whether lipid metabolism-regulating drugs have anti-tumor effects. […] The effect of telmisartan (50 μM) on cell proliferation was further verified by EdU staining.

In a further series the test system is human glioma cells U251. As to the kind of experiment: Incucyte real-time proliferation of U251 cells. It is filed as cell-based. Particulars: telmisartan at different concentrations. As to the method:
as §8, §9

A further series has as its system U87 cells. As to the kind of experiment: EdU staining with flow cytometry, U87. It is filed as cell-based, human. The following applies: telmisartan 50 μM, 48 h, 24.25% before treatment. As to the method:
as §8, §9

The next series has as its system U251 cells. The experiment in a line: EdU staining with flow cytometry, U251. It counts as cell-based, human. Particulars: telmisartan 50 μM, 48 h, 41.44% before treatment. As to the method:
as §8, §9

[9] abbreviates: GSK126 at different concentrations (10-20 μM).

For the molecule `CC[C@H](C)n1cc(C)c2c(C(=O)NCc3c(C)cc(C)[nH]c3=O)cc(-c3ccc(N4CCNCC4)nc3)cc21` [GSK126], the cell proliferation entry with melanoma B16F10 cells [1] (GSK126 10 μM) is on record as “less effective”; in the series on melanoma B16F10 cells [1] (setting [9]), “inhibited cell proliferation in a dose-dependent manner”; in the series with hepatoma Huh7 cells (GSK126 10 μM) it was “less effective”; with hepatoma Huh7 cells (setting [9]), “inhibited cell proliferation in a dose-dependent manner”; with hepatoma SMMC-7721 cells (GSK126 10 μM), “less effective”; in the series with hepatoma SMMC-7721 cells (setting [9]), “inhibited cell proliferation in a dose-dependent manner”. Also, in series [2] (1 μM GSK126), the “sensitivity (CCK-8 proliferation)” value was “very sensitive”. The “proliferation (CCK-8)” value in [2] (10 μM GSK126 for 24 h and 48 h) is listed as “significantly inhibited”; in the series with THP-1 cells it was “significantly inhibited”. Also, the H3K27me3 level entry in [3] is given as “significantly down-regulated”. Moreover, the cell migration result in the series on melanoma cells B16F10 is on record as “did not effectively inhibit cell migration”. Further, the apoptosis rate entry in the series on B16F10 cells is “limited capability to induce apoptosis”. The “levels of fatty acids (α-linolenic acid, DHA, EPA, linoleic acid, γ-linolenic acid, 10Z-heptadienoic acid)” value in the series with melanoma B16F10 cells [4] is “increased”. In addition, in the series on C57BL/6 mice, the “fat vacuoles and lipid deposition in liver tissue sections (H & E and oil red O staining)” value is reported as “significant increase”. Further, the “levels of triglycerides (TG) in blood” value in the series on C57BL/6 mice is recorded as “significantly elevated”. In addition, the “mRNA and protein levels of ACLY, FASN, and SCD” value in series [5] and in [6] was “significantly elevated” in each case. Further, the “inhibitory effect on cell proliferation” value is recorded as “can not achieved” in series [7] (GSK126 20 μM alone, compared with 40 μM or combination) and “the same as that of the combination” in [7] (GSK126 40 μM, compared with GSK126 20 μM + fenofibrate 10 μM). Besides, in [8], the IC50 is below 1000 nM.

Take `CCCc1nc2c(C)cc(-c3nc4ccccc4n3C)cc2n1Cc1ccc(-c2ccccc2C(=O)O)cc1` [telmisartan]: the cell proliferation result in the series on human glioma cells U87 and in the series with human glioma cells U251 was “inhibit the proliferation” in each case. Besides, the “percentage of EdU+ cells” value in the series on U87 cells is 21.16%; with U251 cells, 38.78%.

These data come from patent publication US20240398789A1, “PHARMACEUTICAL COMPOSITION FOR ENHANCING ANTI-TUMOR EFFECT OF EZH2 INHIBITOR AND USE THEREOF” (PEKING UNIVERSITY THIRD HOSPITAL, priority 2021, published 2024).
